Activity calls are given as the source filed them. The calls are words filed in the database; no cut-off is given here.
Tests used:
[1] = molecular target: T1, Nuclear receptor ROR-gamma (Homo sapiens) (UniProt P51449); assay: Transactivation of recombinant GAL4-DBD fused RORgammat LBD (unknown origin) expressed in HEK293T cells at 1 uM incubated for 18 to 24 hrs by dual-Glo luciferase assay relative to control; assay type: cell-based
T1 sequence (whole entry): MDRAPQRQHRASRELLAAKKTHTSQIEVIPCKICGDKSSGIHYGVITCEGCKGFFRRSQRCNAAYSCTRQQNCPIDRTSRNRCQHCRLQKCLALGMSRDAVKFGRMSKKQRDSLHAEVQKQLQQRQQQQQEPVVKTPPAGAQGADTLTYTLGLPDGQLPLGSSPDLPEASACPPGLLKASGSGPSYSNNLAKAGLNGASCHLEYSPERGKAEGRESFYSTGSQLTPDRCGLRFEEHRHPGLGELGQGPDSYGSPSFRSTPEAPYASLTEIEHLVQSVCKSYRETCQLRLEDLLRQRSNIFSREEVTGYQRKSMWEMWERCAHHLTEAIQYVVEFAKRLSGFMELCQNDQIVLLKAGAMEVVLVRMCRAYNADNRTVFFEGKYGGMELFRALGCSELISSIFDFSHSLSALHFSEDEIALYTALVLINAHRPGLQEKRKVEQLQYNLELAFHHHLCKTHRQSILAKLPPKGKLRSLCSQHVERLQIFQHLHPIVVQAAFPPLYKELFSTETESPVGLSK

[2] = Metabolic stability in mouse liver microsomes assessed as parent compound remaining at 1 uM preincubated for 5 mins followed by NADPH addition after 30 mins by LC-MS/MS analysis; assay type: ADME, Microsome; settings: read-out: Stability
Mus musculus [3] = species on record: Mus musculus; assay: Effect on non-RORgammat-dependent ll4 gene expression in BALB/c mouse splenocytes measured after 24 hrs in presence of anti-CD3/anti-CD28; assay type: functional
Mus musculus [4] = assay: Immunosuppressive activity in MOG (35 to 55 residues)/pertussis toxin-induced experimental allergic encephalomyelitis C57BL/6J mouse model assessed as delay in disease onset at 3 to 30 mg/kg, po bid; assay type: functional, organism-based
[5] = molecular target: T2, Nuclear receptor ROR-gamma (Mus musculus) (UniProt P51450); assay: Transrepression of RORgammat in Balb/c mouse splenocytes assessed as inhibition of anti-CD3/anti-CD28 stimulated IL-17 gene expression at 30 uM measured after 24 hrs in presence of anti-CD3/anti-CD28; assay type: cell-based
T2 sequence (whole entry): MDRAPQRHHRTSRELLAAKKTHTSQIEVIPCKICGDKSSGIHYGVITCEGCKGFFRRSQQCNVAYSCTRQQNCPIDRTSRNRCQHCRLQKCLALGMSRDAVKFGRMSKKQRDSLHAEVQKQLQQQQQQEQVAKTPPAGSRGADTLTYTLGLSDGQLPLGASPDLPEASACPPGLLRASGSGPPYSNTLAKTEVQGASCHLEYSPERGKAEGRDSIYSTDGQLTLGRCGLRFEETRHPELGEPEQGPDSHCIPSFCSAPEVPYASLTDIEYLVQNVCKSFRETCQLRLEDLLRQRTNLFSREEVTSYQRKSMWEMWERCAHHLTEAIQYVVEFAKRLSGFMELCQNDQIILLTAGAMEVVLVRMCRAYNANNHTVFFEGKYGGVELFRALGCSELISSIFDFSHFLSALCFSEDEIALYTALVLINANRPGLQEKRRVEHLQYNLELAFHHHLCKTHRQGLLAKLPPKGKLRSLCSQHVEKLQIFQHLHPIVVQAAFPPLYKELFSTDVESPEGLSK

[6] = molecular target: T2, Nuclear receptor ROR-gamma (Mus musculus); assay: Transrepression of RORgammat in Balb/c mouse splenocytes assessed as inhibition of anti-CD3/anti-CD28 stimulated IL-17 gene expression at 0.3 uM measured after 24 hrs in presence of anti-CD3/anti-CD28; assay type: cell-based
Mus musculus [7] = assay: Immunosuppressive activity in MOG (35 to 55 residues)/pertussis toxin-induced experimental allergic encephalomyelitis C57BL/6J mouse model assessed as IFN-gamma production of CNS infiltrating CD4+ Th1 cells at 3 to 30 mg/kg, po bid by intracellular staining method; assay type: functional, organism-based
Mus musculus [8] = species on record: Mus musculus; assay: Effect on non-RORgammat-dependent il6 gene expression in BALB/c mouse splenocytes measured after 24 hrs in presence of anti-CD3/anti-CD28; assay type: functional
[9] = molecular target: T2, Nuclear receptor ROR-gamma (Mus musculus); assay: Transrepression of RORgammat in Balb/c mouse splenocytes assessed as inhibition of anti-CD3/anti-CD28 stimulated IL-17 gene expression at 3 uM measured after 24 hrs in presence of anti-CD3/anti-CD28; assay type: cell-based
Mus musculus [10] = species on record: Mus musculus; assay: Effect on non-RORgammat-dependent TNFA gene expression in BALB/c mouse splenocytes measured after 24 hrs in presence of anti-CD3/anti-CD28; assay type: functional
Mus musculus [11] = species on record: Mus musculus; assay: Effect on non-RORgammat-dependent IFNG gene expression in BALB/c mouse splenocytes measured after 24 hrs in presence of anti-CD3/anti-CD28; assay type: functional
Mus musculus [12] = assay: Immunosuppressive activity in MOG (35 to 55 residues)/pertussis toxin-induced experimental allergic encephalomyelitis C57BL/6J mouse model assessed as decrease in ratio of Th17:Th1 at 3 to 30 mg/kg, po bid by intracellular staining method; assay type: functional, organism-based
Mus musculus [13] = assay: Immunosuppressive activity in MOG (35 to 55 residues)/pertussis toxin-induced experimental allergic encephalomyelitis C57BL/6J mouse model assessed as reduction in disease severity at 3 to 30 mg/kg, po bid measured at days 15-19; assay type: functional, organism-based
Mus musculus [14] = assay: Immunosuppressive activity in MOG (35 to 55 residues)/pertussis toxin-induced experimental allergic encephalomyelitis C57BL/6J mouse model assessed as reduction in disease severity score at 15 mg/kg, po bid measured at day 23 relative to dexamethasone; assay type: functional; settings: 552 h
[15] = Metabolic stability in human liver microsomes assessed as parent compound remaining at 1 uM preincubated for 5 mins followed by NADPH addition after 30 mins by LC-MS/MS analysis; assay type: ADME, Microsome; settings: read-out: Stability
[16] = Metabolic stability in rat liver microsomes assessed as parent compound remaining at 1 uM preincubated for 5 mins followed by NADPH addition after 30 mins by LC-MS/MS analysis; assay type: ADME, Microsome; settings: read-out: Stability
[17] = molecular target: T1, Nuclear receptor ROR-gamma (Homo sapiens); assay: Transactivation of recombinant GAL4-DBD fused RORgammat LBD (unknown origin) expressed in HEK293T cells at 10 uM incubated for 18 to 24 hrs by dual-Glo luciferase assay relative to control; assay type: cell-based
Mus musculus [18] = assay: Inhibition of anti-CD3-induced IL-17A level in Balb/c mouse plasma at 5 mg/kg, po treated prior to stimulation with anti-CD3 for 3 hrs relative to control; assay type: functional

Q: With `O=C(O)c1ccc(-n2cc(C(=O)c3c(Cl)cccc3Cl)c3ccncc32)cc1` as the molecule, how does the inhibition [1] read?
A: 27%

Q: And the remaining at 0.5 h, 1 µM [2]?
A: 100%

Q: Which results are given for `O=C(O)c1ccc(-n2cc(C(=O)c3c(Cl)cccc3Cl)c3cccc(F)c32)cc1`?
A: Activity (Mus musculus [3]): inactive; Activity (Mus musculus [4]): Active; inhibition [5]: 76%; inhibition [6]: 2%; Activity (Mus musculus [7]): Active; Activity (Mus musculus [8]): inactive; inhibition [9]: 52%; Activity (Mus musculus [10]): inactive; Activity (Mus musculus [11]): inactive; inhibition (Mus musculus [12]): Active; Activity (Mus musculus [13]): Active

Q: With `C[S+](C)[O-]` [DIMETHYL SULFOXIDE] as the molecule, how does the inhibition in vivo at 15 mg/kg (Mus musculus [14]) read?
A: 15%

Q: Which results are given for `O=C(O)c1ccc(-n2cc(C(=O)c3c(Cl)cccc3Cl)c3ncccc32)cc1`?
A: remaining at 0.5 h, 1 µM [15]: 94%; remaining at 0.5 h, 1 µM [16]: 96%; inhibition [17]: 3%; remaining at 0.5 h, 1 µM [2]: 100%

Q: For `C[C@@H]1C[C@H]2[C@@H]3CCC4=CC(=O)C=C[C@]4(C)[C@@]3(F)[C@@H](O)C[C@]2(C)[C@@]1(O)C(=O)CO` [DEXAMETHASONE], which inhibition in vivo at 5 mg/kg (Mus musculus [18]) is on record?
A: 51%
